pIC50: −log10 of the molar value.
Columns and labels:
[1] = biological target: human Bub1 (Homo sapiens (Human), UniProt O43683); experiment: Bub1 kinase assay (TR-FRET); type: biochemical; conditions: 10 μM ATP; read-out: Bub1 avg (IC50 [mol/l])
Text: Bub1-inhibitory activity of compounds of the present invention was quantified employing the Bub1 TR-FRET assay as described in the following paragraphs.
N-terminally His6-tagged recombinant catalytic domain of human Bub1 (amino acids 704-1085), expressed in insect cells (Hi5) and purified by Ni-NTA affinity chromatography and subsequent size exclusion chromatography, was used as enzyme. As substrate for the kinase reaction the biotinylated peptide biotin-Ahx-VLLPKKSFAEPG (C-terminus in amid form) was used which can be purchased e.g. form the company Biosyntan (Berlin, Germany).
For the assay 50 nl of a 100 fold concentrated solution of the test compound in DMSO was pipetted into a black low volume 384 well microtiter plate (Greiner Bio-One, Frickenhausen, Germany), 2 μl of a solution of Bub1 in aqueous assay buffer [50 mM Tris/HCl pH 7.5, 10 mM magnesium chloride (MgCl2), 200 mM potassium chloride (KCl), 1.0 mM dithiothreitol (DTT), 0.1 mM sodium ortho-vanadate, 1% (v/v) glycerol, 0.01% (w/v) bovine serum albumine (BSA), 0.005% (v/v) Trition X-100 (Sigma), 1× Complete EDTA-free protease inhibitor mixture (Roche)] were added and the mixture was incubated for 15 min at 22° C. to allow pre-binding of the test compounds to the enzyme before the start of the kinase reaction. Then the kinase reaction was started by the addition of 3 μl of a solution of adenosine-tri-phosphate (ATP, 16.7 μM=>final conc. in the 5 μl assay volume is 10 μM) and substrate (1.67 μM=>final conc. in the 5 μl assay volume is 1 μM) in assay buffer and the resulting mixture was incubated for a reaction time of 60 min at 22° C. The concentration of Bub1 was adjusted depending of the activity of the enzyme lot and was chosen appropriate to have the assay in the linear range, typical concentrations were in the range of 200 ng/ml. The reaction was stopped by the addition of 5 μl of a solution of TR-FRET detection reagents (0.2 μM streptavidine-XL665 [Cisbio Bioassays, Codolet, France] and 1 nM anti-phosho-Serine antibody [Merck Millipore, cat. #35-001] and 0.4 nM LANCE EU-W1024 labeled anti-mouse IgG antibody [Perkin-Elmer, product no. AD0077, as an alternative a Terbium-cryptate-labeled anti-mouse IgG antibody from Cisbio Bioassays can be used]) in an aqueous EDTA-solution (50 mM EDTA, 0.2% (w/v) bovine serum albumin in 100 mM HEPES pH 7.5).
(§1) The resulting mixture was incubated 1 h at 22° C. to allow the formation of complex between the phosphorylated biotinylated peptide and the detection reagents. Subsequently the amount of phosphorylated substrate was evaluated by measurement of the resonance energy transfer from the Eu-chelate to the streptavidine-XL. Therefore, the fluorescence emissions at 620 nm and 665 nm after excitation at 350 nm was measured in a TR-FRET reader, e.g. a Rubystar or Pherastar (both from BMG Labtechnologies, Offenburg, Germany) or a Viewlux (Perkin-Elmer). The ratio of the emissions at 665 nm and at […] was taken as the measure for the amount of phosphorylated substrate. The data were normalised (enzyme reaction without inhibitor=0% inhibition, all other assay components but no enzyme=100% inhibition).

[2] = biological target: CDK2/CycE (Homo sapiens (Human), UniProt P24941); experiment: CDK2/CycE kinase assay (TR-FRET); type: biochemical; conditions: 10 μM ATP; read-out: CDK2 avg (IC50 [mol/l])
Text: CDK2/CycE-inhibitory activity of compounds of the present invention was quantified employing the CDK2/CycE TR-FRET assay as described in the following paragraphs.
Recombinant fusion proteins of GST and human CDK2 and of GST and human CycE, expressed in insect cells (Sf9) and purified by Glutathion-Sepharose affinity chromatography, were purchased from ProQinase GmbH (Freiburg, Germany). As substrate for the kinase reaction biotinylated peptide biotin-Ttds-YISPLKSPYKISEG (C-terminus in amid form) was used which can be purchased e.g. form the company JERINI peptide technologies (Berlin, Germany).
For the assay 50 nl of a 100 fold concentrated solution of the test compound in DMSO was pipetted into a black low volume 384 well microtiter plate (Greiner Bio-One, Frickenhausen, Germany), 2 μl of a solution of CDK2/CycE in aqueous assay buffer [50 mM Tris/HCl pH 8.0, 10 mM MgCl2, 1.0 mM dithiothreitol, 0.1 mM sodium ortho-vanadate, 0.01% (v/v) Nonidet-P40 (Sigma)] were added and the mixture was incubated for 15 min at 22° C. to allow pre-binding of the test compounds to the enzyme before the start of the kinase reaction. Then the kinase reaction was started by the addition of 3 μl of a solution of adenosine-tri-phosphate (ATP, 16.7 μM=>final conc. in the 5 μl assay volume is 10 μM) and substrate (1.25 μM=>final conc. in the 5 μl assay volume is 0.75 μM) in assay buffer and the resulting mixture was incubated for a reaction time of 25 min at 22° C. The concentration of CDK2/CycE was adjusted depending of the activity of the enzyme lot and was chosen appropriate to have the assay in the linear range, typical concentrations were in the range of 130 ng/ml. The reaction was stopped by the addition of 5 μl of a solution of TR-FRET detection reagents (0.2 μM streptavidine-XL665 [Cisbio Bioassays, Codolet, France] and 1 nM anti-RB(pSer807/pSer811)-antibody from BD Pharmingen [#558389] and 1.2 nM LANCE EU-W1024 labeled anti-mouse IgG antibody [Perkin-Elmer, product no. AD0077, as an alternative a Terbium-cryptate-labeled anti-mouse IgG antibody from Cisbio Bioassays can be used]) in an aqueous EDTA-solution (100 mM EDTA, 0.2% (w/v) bovine serum albumin in 100 mM HEPES/NaOH pH 7.0).
as §1, with “(BMG” for “or Pherastar (both from BMG”

Sequence of human Bub1 (O43683 704-1085): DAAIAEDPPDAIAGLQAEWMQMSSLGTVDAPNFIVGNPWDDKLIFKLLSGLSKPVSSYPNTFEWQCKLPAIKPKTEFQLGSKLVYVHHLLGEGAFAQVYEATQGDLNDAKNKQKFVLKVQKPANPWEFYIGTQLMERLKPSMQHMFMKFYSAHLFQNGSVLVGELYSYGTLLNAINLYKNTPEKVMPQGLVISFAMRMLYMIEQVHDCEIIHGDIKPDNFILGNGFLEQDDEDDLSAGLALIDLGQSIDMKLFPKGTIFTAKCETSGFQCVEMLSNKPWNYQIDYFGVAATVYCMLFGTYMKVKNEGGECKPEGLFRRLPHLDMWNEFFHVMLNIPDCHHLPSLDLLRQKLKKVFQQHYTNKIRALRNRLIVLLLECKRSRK

Row | SMILES | pIC50 [1] | pIC50 [2]
1 | CCc1ccccc1NC(=O)c1c(C)nsc1Nc1nc(C)nc2ccccc12 [Example 35, N-(2-Ethylphenyl)-3-methyl-5-[(2-methylquinazolin-4-yl)amino]-1,2-thiazole-4-carboxamide] | < 4.70 | < 4.70
2 | COc1ccc(NC(=O)c2c(C)nsc2Nc2cnc3cc(Cl)ccc3n2)cn1 [Example 23, 5-[(6-Chloroquinoxalin-2-yl)amino]-N-(6-methoxypyridin-3-yl)-3-methyl-1,2-thiazole-4-carboxamide] | < 4.70 | < 4.70
3 | COc1ccc(NC(=O)c2c(C)nsc2Nc2cnc3cccc(C)c3n2)cn1 [Example 22, N-(6-methoxypyridin-3-yl)-3-methyl-5-[(8-methylquinoxalin-2-yl)amino]-1,2-thiazole-4-carboxamide] | < 4.70 | < 4.70
4 | CCc1ccccc1NC(=O)c1c(C)nsc1Nc1nc(C)nc2sccc12 [Example 38, N-(2-Ethylphenyl)-3-methyl-5-[(2-methylthieno[2,3-d]pyrimidin-4-yl)amino]-1,2-thiazole-4-carboxamide] | < 4.70 | < 4.70
5 | CCc1ccccc1NC(=O)c1c(C)nsc1Nc1cnc2cccc(C)c2n1 [Example 33, N-(2-Ethylphenyl)-3-methyl-5-[(8-methylquinoxalin-2-yl)amino]-1,2-thiazole-4-carboxamide] | < 4.70 | < 4.70
6 | COc1ccc(NC(=O)c2c(C)nsc2Nc2cccc(C#N)n2)cn1 [Example 37, 5-[(6-Cyanopyridin-2-yl)amino]-N-(6-methoxypyridin-3-yl)-3-methyl-1,2-thiazole-4-carboxamide] | < 4.70 | < 4.70
7 | CCc1ccccc1NC(=O)c1c(C)nsc1Nc1cnc2cc(F)ccc2n1 [Example 20, N-(2-Ethylphenyl)-5-[(6-fluoroquinoxalin-2-yl)amino]-3-methyl-1,2-thiazole-4-carboxamide] | < 4.70 | < 4.70
8 | CCOC(=O)c1sc(Nc2snc(C)c2C(=O)Nc2ccccc2CC)nc1C [Example 26, Ethyl 2-({4-[(2-ethylphenyl)carbamoyl]-3-methyl-1,2-thiazol-5-yl}amino)-4-methyl-1,3-thiazole-5-carboxylate] | < 4.70 | < 4.70
9 | CCc1ccccc1NC(=O)c1c(C)nsc1Nc1nc2ccccc2o1 [Example 11, 5-(1,3-Benzoxazol-2-ylamino)-N-(2-ethylphenyl)-3-methyl-1,2-thiazole-4-carboxamide] | 5.42 | < 4.70
10 | Cc1nsc(Nc2nc3c(C(F)(F)F)cccc3s2)c1C(=O)Nc1ccc(Cl)c(Cl)c1 [Example 102, N-(3,4-Dichlorophenyl)-3-methyl-5-{[4-(trifluoromethyl)-1,3-benzothiazol-2-yl]amino}-1,2-thiazole-4-carboxamide] | < 4.70 | < 4.70
11 | Cc1nsc(Nc2ccc(C#N)cn2)c1C(=O)Nc1ccc(OC(C)C)nc1 [Example 110, 5-[(5-Cyanopyridin-2-yl)amino]-N-(6-isopropoxyridin-3-yl)-3-methyl-1,2-thiazole-4-carboxamide] | < 4.70 | < 4.70
12 | CCOC(=O)c1coc(Nc2snc(C)c2C(=O)Nc2ccc(OC)nc2)n1 [Example 100, Ethyl 2-({4-[(6-methoxypyridin-3-yl)carbamoyl]-3 methyl-1,2-thiazol-5-yl}amino)-1,3-oxazole-4-carboxylate] | < 4.70 | < 4.70

Continued, values first:

Row | pIC50 [1] | pIC50 [2] | SMILES
13 | < 4.70 | < 4.70 | Cc1nsc(Nc2cncc(C(=O)N3CCOCC3)n2)c1C(=O)Nc1ccc(F)c(F)c1 [Example 107, N-(3,4-Difluorophenyl)-3-methyl-5-{[6-(morpholin-4-ylcarbonyl)pyrazin-2-yl]amino}-1,2-thiazole-4-carboxamide]
14 | < 4.70 | < 4.70 | Cc1nsc(Nc2cc(C#N)ccn2)c1C(=O)Nc1ccc(F)c(F)c1 [Example 27, 5-[(4-Cyanopyridin-2-yl)amino]-N-(3,4-difluorophenyl)-3-methyl-1,2-thiazole-4-carboxamide]
15 | < 4.70 | < 4.70 | COc1ccc(NC(=O)c2c(C)nsc2Nc2cc(C#N)ccn2)cn1 [Example 25, 5-[(4-Cyanopyridin-2-yl)amino]-N-(6-methoxypyridin-3-yl)-3-methyl-1,2-thiazole-4-carboxamide]
16 | < 4.70 | < 4.70 | CCOC(=O)c1cnn2ccc(Nc3snc(C)c3C(=O)Nc3ccc(F)c(F)c3)nc12 [Example 55, Ethyl 5-({4-[(3,4-difluorophenyl)carbamoyl]-3-methyl-1,2-thiazol-5-yl}amino)-pyrazolo[1,5-a]pyrimidine-3-carboxylate]
17 | < 4.70 | < 4.70 | Cc1nsc(Nc2cnc3ccccc3n2)c1C(=O)Nc1ccc(Cl)c(F)c1 [Example 40, N-(4-Chloro-3-fluorophenyl)-3-methyl-5-(quinoxalin-2-ylamino)-1,2-thiazole-4-carboxamide]
18 | < 4.70 | < 4.70 | CCOC(=O)c1cnc(Nc2snc(C)c2C(=O)Nc2ccc(F)c(F)c2)o1 [Example 96, Ethyl 2-({4-[(3,4-difluorophenyl)carbamoyl]-3-methyl-1,2-thiazol-5-yl}amino)-1,3-oxazole-5-carboxylate]
19 | < 4.70 | < 4.70 | CNC(=O)c1ccnc(Nc2snc(C)c2C(=O)Nc2ccc(F)c(F)c2)c1 [Example 108, 2-({4-[(3,4-Difluorophenyl)-carbamoyl]-3-methyl-1,2-thiazol-5-yl}amino)-N-methyliso-nicotinamide]
20 | < 4.70 | < 4.70 | COC(=O)c1ccc(Nc2snc(C)c2C(=O)Nc2ccc(OC)nc2)nc1 [Example 31, Methyl 6-({4-[(6-methoxypyridin-3-yl)carbamoyl]-3-methyl-1,2-thiazol-5-yl}amino)-nicotinate]

Reference: patent publication US9682995B2, “Amino-substituted isothiazoles” (BAYER PHARMA AKTIENGESELLSCHAFT, priority 2013, dated 2017)
